{"source": "patent US20230104936A1", "about": "“TRPML MODULATORS” (Casma Therapeutics, Inc., priority 2019, published 2023)", "data": [{"test_system": "TFEB", "assay": "TFEB nuclear translocation assay, HeLa wt cells", "format": "cell-based", "details": "Homo sapiens, HeLa, 2 h, 2 hrs compound treatment, Table 1 does not say HeLa wt or TRPML1 KO", "how_it_was_run": "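AC50 derived from the ratio of nuclear to perinuclear ring (−5 μm) anti-TFEB immunofluorescence, imaged at ×20 over four fields per well. HeLa wt or TRPML1 KO cells were exposed to compounds for 2 hrs at 37° C, then PFA-fixed and counterstained with Hoechst.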", "units": {"AC50": "nM"}, "values": [{"smiles": "COc1ccc(S(=O)(=O)Nc2ccccc2N2CCC(N(C)c3ccc(F)cc3F)CC2)cc1", "note": "[Compound A-189, N-(2-{4-[(2,4-difluorophenyl)(methyl)amino]piperidin-1-yl}phenyl)-4-methoxybenzene-1-sulfonamide]", "AC50": "≤ 2000"}, {"smiles": "CN(C)S(=O)(=O)c1ccc([S+]([O-])Cc2ccccc2N2CCC(c3ccc(Cl)cc3F)CC2)cc1", "note": "(stereo not shown) [Compound A-190, 4-((2-(4-(4-chloro-2-fluorophenyl)piperidin-1-yl)benzyl)sulfinyl)-N,N-dimethylbenzenesulfonamide]", "AC50": "≤ 2000"}, {"smiles": "O=C(c1ccc(S(=O)(=O)Nc2ccccc2N2CCC(c3ccc(Cl)cc3F)CC2)cc1)C(F)(F)F", "note": "[Compound A-191, N-{2-[4-(4-chloro-2-fluorophenyl)piperidin-1-yl]phenyl}-4-(2,2,2-trifluoroacetyl)benzene-1-sulfonamide]", "AC50": "2010 to 8000"}, {"smiles": "COc1ccc(S(=O)(=O)Nc2ccncc2N2CCC(c3ncc(F)cc3F)CC2)cc1", "note": "[Compound A-192, N-{3-[4-(3,5-difluoropyridin-2-yl)piperidin-1-yl]pyridin-4-yl}-4-methoxybenzene-1-sulfonamide]", "AC50": "≥ 10000"}, {"smiles": "COc1ccc(S(=O)(=O)Nc2cnccc2N2CCC(c3ncc(F)cc3F)CC2)cc1", "note": "[Compound A-193, N-{4-[4-(3,5-difluoropyridin-2-yl)piperidin-1-yl]pyridin-3-yl}-4-methoxybenzene-1-sulfonamide]", "AC50": "≥ 10000"}, {"smiles": "COc1ccc(S(=O)(=O)Nc2ccccc2N2CCN(Cc3ccc(F)cc3F)CC2)cc1", "note": "[Compound A-194, N-(2-{4-[(2,4-difluorophenyl)methyl]piperazin-1-yl}phenyl)-4-methoxybenzene-1-sulfonamide]", "AC50": "≥ 10000"}, {"smiles": "COc1ccc(S(=O)(=O)Nc2ccccc2N2CCC(Cc3ccc(F)cc3F)CC2)cc1", "note": "[Compound A-195, N-(2-{4-[(2,4-difluorophenyl)methyl]piperidin-1-yl}phenyl)-4-methoxybenzene-1-sulfonamide]", "AC50": "2010 to 8000"}, {"smiles": "COc1ccc(S(=O)(=O)Nc2ccccc2N2CCC(Oc3ccc(F)cc3F)CC2)cc1", "note": "[Compound A-196, N-{2-[4-(2,4-difluorophenoxy)piperidin-1-yl]phenyl}-4-methoxybenzene-1-sulfonamide]", "AC50": "≤ 2000"}, {"smiles": "COc1ccc(S(=O)(=O)Nc2ccccc2N2CCC(Cc3ccc(F)cc3F)C2)cc1", "note": "(stereo not shown) [Compound A-197, N-(2-{3-[(2,4-difluorophenyl)methyl]pyrrolidin-1-yl}phenyl)-4-methoxybenzene-1-sulfonamide]", "AC50": "≥ 10000"}, {"smiles": "CCS(=O)(=O)c1ccc(S(=O)(=O)Nc2ccccc2N2CCC(c3c(F)cccc3F)CC2)cc1", "note": "[Compound A-198, N-{2-[4-(2,6-difluorophenyl)piperidin-1-yl]phenyl}-4-(ethanesulfonyl)benzene-1-sulfonamide]", "AC50": "≤ 2000"}, {"smiles": "COc1ccc(S(=O)(=O)Nc2ccccc2N(C)c2ccc(F)cc2F)cc1", "note": "[Compound A-199, N-{2-[(2,4-difluorophenyl)(methyl)amino]phenyl}-4-methoxybenzene-1-sulfonamide]", "AC50": "≥ 10000"}, {"smiles": "COc1ccc(S(=O)(=O)Nc2ccccc2N2CC(Oc3ccc(F)cc3F)C2)cc1", "note": "[Compound A-200, N-{2-[3-(2,4-difluorophenoxy)azetidin-1-yl]phenyl}-4-methoxybenzene-1-sulfonamide]", "AC50": "2010 to 8000"}, {"smiles": "COc1ccc(S(=O)(=O)Nc2ccccc2N2CCC(N(C)c3ccc(F)cc3F)C2)cc1", "note": "(stereo not shown) [Compound A-201, N-(2-{3-[(2,4-difluorophenyl)(methyl)amino]pyrrolidin-1-yl}phenyl)-4-methoxybenzene-1-sulfonamide]", "AC50": "2010 to 8000"}, {"smiles": "COc1ccc(S(=O)(=O)Nc2ccccc2N2CCC(Oc3ccc(F)cc3F)C2)cc1", "note": "(stereo not shown) [Compound A-202, N-{2-[3-(2,4-difluorophenoxy)pyrrolidin-1-yl]phenyl}-4-methoxybenzene-1-sulfonamide]", "AC50": "≥ 10000"}, {"smiles": "CS(=O)(=O)c1ccc(S(=O)(=O)Nc2ccccc2N2CCC(O)(c3ccc(F)cc3)CC2)cc1", "note": "[Compound A-203, N-{2-[4-(4-fluorophenyl)-4-hydroxypiperidin-1-yl]phenyl}-4-methanesulfonylbenzene-1-sulfonamide]", "AC50": "2010 to 8000"}, {"smiles": "CN(C)S(=O)(=O)c1ccc(S(=O)(=O)Nc2ccccc2N2CCC(C)(c3ccc(Cl)cc3F)CC2)cc1", "note": "[Compound A-204, N4-{2-[4-(4-chloro-2-fluorophenyl)-4-methylpiperidin-1-yl]phenyl}-N1,N1-dimethylbenzene-1,4-disulfonamide]", "AC50": "≤ 2000"}, {"smiles": "CN(C)S(=O)(=O)c1ccc(S(=O)(=O)Nc2ccccc2N2CCC(C)(c3ccc(F)cc3Cl)CC2)cc1", "note": "[Compound A-205, N4-{2-[4-(2-chloro-4-fluorophenyl)-4-methylpiperidin-1-yl]phenyl}-N1,N1-dimethylbenzene-1,4-disulfonamide]", "AC50": "≤ 2000"}, {"smiles": "COc1ccc(S(=O)(=O)Nc2cnncc2N2CCC(c3ncc(F)cc3F)CC2)cc1", "note": "[Compound A-206, N-{5-[4-(3,5-difluoropyridin-2-yl)piperidin-1-yl]pyridazin-4-yl}-4-methoxybenzene-1-sulfonamide]", "AC50": "≥ 10000"}, {"smiles": "COCS(=O)(=O)c1ccc(S(=O)(=O)Nc2ccccc2N2CCC(c3c(F)cccc3F)CC2)cc1", "note": "[Compound A-207, N-{2-[4-(2,6-difluorophenyl)piperidin-1-yl]phenyl}-4-methoxymethanesulfonylbenzene-1-sulfonamide]", "AC50": "≤ 2000"}, {"smiles": "CN(C)S(=O)(=O)c1ccc(S(=O)(=O)Nc2ccccc2N2CCC(O)(c3ccc(F)cn3)CC2)cc1", "note": "[Compound A-209, N4-{2-[4-(5-fluoropyridin-2-yl)-4-hydroxypiperidin-1-yl]phenyl}-N1,N1-dimethylbenzene-1,4-disulfonamide]", "AC50": "≤ 2000"}, {"smiles": "CN(C)S(=O)(=O)c1ccc(S(=O)(=O)Nc2ccccc2N2CCC(O)(c3cc(Br)ncc3F)CC2)cc1", "note": "[Compound A-210, N4-{2-[4-(2-bromo-5-fluoropyridin-4-yl)-4-hydroxypiperidin-1-yl]phenyl}-N1,N1-dimethylbenzene-1,4-disulfonamide]", "AC50": "≤ 2000"}, {"smiles": "CN(C)C1(c2ccc(Cl)cc2F)CCN(c2ccccc2NS(=O)(=O)c2ccc(S(=O)(=O)N(C)C)cc2)CC1", "note": "[Compound A-211, N4-{2-[4-(4-chloro-2-fluorophenyl)-4-(dimethylamino)piperidin-1-yl]phenyl}-N1,N1-dimethylbenzene-1,4-disulfonamide]", "AC50": "≤ 2000"}, {"smiles": "CNC1(c2ccc(Cl)cc2F)CCN(c2ccccc2NS(=O)(=O)c2ccc(S(=O)(=O)N(C)C)cc2)CC1", "note": "[Compound A-212, N4-{2-[4-(4-chloro-2-fluorophenyl)-4-(methylamino)piperidin-1-yl]phenyl}-N1,N1-dimethylbenzene-1,4-disulfonamide]", "AC50": "≤ 2000"}, {"smiles": "CC(C)(C)S(=O)(=O)c1ccc(S(=O)(=O)Nc2ccccc2N2CCC(c3c(F)cccc3F)CC2)cc1", "note": "[Compound A-213, N-{2-[4-(2,6-difluorophenyl)piperidin-1-yl]phenyl}-4-(2-methylpropane-2-sulfonyl)benzene-1-sulfonamide]", "AC50": "≤ 2000"}, {"smiles": "CN(C)S(=O)(=O)c1ccc(S(=O)(=O)Cc2ccccc2N2CCC(c3ccc(Cl)cc3F)CC2)cc1", "note": "[Compound A-214, 4-((2-(4-(4-chloro-2-fluorophenyl)piperidin-1-yl)benzyl)sulfonyl)-N,N-dimethylbenzenesulfonamide]", "AC50": "≤ 2000"}, {"smiles": "CN1CC2(CCN(c3ccccc3NS(=O)(=O)c3ccc(S(=O)(=O)N(C)C)cc3)CC2)c2ccc(F)cc21", "note": "[Compound A-215, N4-(2-{6-fluoro-1-methyl-1,2-dihydrospiro[indole-3,4′-piperidin]-1′-yl}phenyl)-N1,N1-dimethylbenzene-1,4-disulfonamide]", "AC50": "≤ 2000"}, {"smiles": "CNC(=O)C1(c2ccc(F)cc2F)CCN(c2ccccc2NS(=O)(=O)c2ccc(S(=O)(=O)N(C)C)cc2)CC1", "note": "[Compound A-216, 4-(2,4-difluorophenyl)-1-{2-[4-(dimethylsulfamoyl)benzenesulfonamido]phenyl}-N-methylpiperidine-4-carboxamide]", "AC50": "≤ 2000"}, {"smiles": "O=S(=O)(Nc1ccccc1N1CCC(c2c(F)cccc2F)CC1)c1ccc(S(=O)(=O)N2CCOCC2)cc1", "note": "[Compound A-217, N-{2-[4-(2,6-difluorophenyl)piperidin-1-yl]phenyl}-4-(morpholine-4-sulfonyl)benzene-1-sulfonamide]", "AC50": "≤ 2000"}, {"smiles": "CNCC1(c2ccc(F)cc2F)CCN(c2ccccc2NS(=O)(=O)c2ccc(S(=O)(=O)N(C)C)cc2)CC1", "note": "[Compound A-218, N4-{2-[4-(2,4-difluorophenyl)-4-[(methylamino)methyl]piperidin-1-yl]phenyl}-N1,N1-dimethylbenzene-1,4-disulfonamide]", "AC50": "≤ 2000"}, {"smiles": "COc1ccc(S(=O)(=O)Nc2ccccc2N2CC(Cc3ccc(F)cc3F)C2)cc1", "note": "[Compound A-219, N-(2-{3-[(2,4-difluorophenyl)methyl]azetidin-1-yl}phenyl)-4-methoxybenzene-1-sulfonamide]", "AC50": "≥ 10000"}, {"smiles": "CN1CCN(S(=O)(=O)c2ccc(S(=O)(=O)Nc3ccccc3N3CCC(c4c(F)cccc4F)CC3)cc2)CC1", "note": "[Compound A-220, N-{2-[4-(2,6-difluorophenyl)piperidin-1-yl]phenyl}-4-[(4-methylpiperazin-1-yl)sulfonyl]benzene-1-sulfonamide]", "AC50": "≥ 10000"}, {"smiles": "CN(C)CC1(c2ccc(F)cc2F)CCN(c2ccccc2NS(=O)(=O)c2ccc(S(=O)(=O)N(C)C)cc2)CC1", "note": "[Compound A-221, N4-{2-[4-(2,4-difluorophenyl)-4-[(dimethylamino)methyl]piperidin-1-yl]phenyl}-N1,N1-dimethylbenzene-1,4-disulfonamide]", "AC50": "≤ 2000"}, {"smiles": "CN(C)C(c1ccc(S(=O)(=O)Nc2ccccc2N2CCC(c3ccc(Cl)cc3F)CC2)cc1)C(F)(F)F", "note": "(stereo not shown) [Compound A-222, N-{2-[4-(4-chloro-2-fluorophenyl)piperidin-1-yl]phenyl}-4-[1-(dimethylamino)-2,2,2-trifluoroethyl]benzene-1-sulfonamide]", "AC50": "≤ 2000"}, {"smiles": "CN(CCO)S(=O)(=O)c1ccc(S(=O)(=O)Nc2ccccc2N2CCC(c3c(F)cccc3F)CC2)cc1", "note": "[Compound A-223, N4-{2-[4-(2,6-difluorophenyl)piperidin-1-yl]phenyl}-N1-(2-hydroxyethyl)-N1-methylbenzene-1,4-disulfonamide]", "AC50": "2010 to 8000"}]}]}
